Reference: ChEMBL document CHEMBL1122811, “Structure-activity studies on antidepressant 2,2-diarylethylamines” (J Med Chem, 1984)
Calls of active or inactive are those of the source.

Experiments:
Mus musculus [1] = test: Antidepressant activity measured by maximal electroshock seizure threshold (MEST) assay in TBZ treated mice after ip administration; type: functional
Mus musculus [2] = test: Antidepressant activity measured by tetrabenazine (TBZ) induced ptosis in mice after intraperitoneal administration; type: functional; conditions: ip
Mus musculus [3] = species on record: Mus musculus; test: Antidepressant activity measured by effects on […] (TBZ) inhibited exploratory activity.; type: functional
Mus musculus [4] = test: Antidepressant activity measured by maximal electroshock seizure threshold (MEST) assay in untreated mice after ip administration; type: functional
[5] = Compound was evaluated for 50% lethal dose in mice; LD50 range is 30-100; type: ADME, organism-based; conditions: mouse, in vivo
Mus musculus [6] = test: Compound was evaluated for antidepressant activity measured by tetrabenazine (TBZ) induced exploratory activity in mice after 30 mg/kg intraperitoneal administration; inactive; type: functional, organism-based; set-up: dose 30 mg/kg
Mus musculus [7] = test: Compound was evaluated for antidepressant activity measured by tetrabenazine (TBZ) induced ptosis in mice after 30 mg/kg intraperitoneal administration; inactive; type: functional, organism-based; set-up: dose 30 mg/kg
[8] = Compound was evaluated for 50% lethal dose in mice; LD50 range is 100-300; type: ADME, organism-based; conditions: mouse, in vivo
Mus musculus [9] = test: Compound was evaluated for antidepressant activity measured by tetrabenazine (TBZ) induced ptosis in mice after 60 mg/kg intraperitoneal administration; inactive; type: functional, organism-based; set-up: dose 60 mg/kg
Mus musculus [10] = test: Compound was evaluated for antidepressant activity measured by tetrabenazine (TBZ) induced exploratory activity in mice after 60 mg/kg intraperitoneal administration; inactive; type: functional, organism-based; set-up: dose 60 mg/kg
[11] = Compound was evaluated for 50% lethal dose in mice; LD50 range 30-100 mg/kg; type: ADME, organism-based; conditions: mouse, in vivo
Mus musculus [12] = test: Compound was evaluated for antidepressant activity measured by tetrabenazine (TBZ) induced ptosis in mice after 10 mg/kg intraperitoneal administration; Inactive; type: functional, organism-based; set-up: dose 10 mg/kg
Mus musculus [13] = test: Compound was evaluated for antidepressant activity measured by tetrabenazine (TBZ) induced exploratory activity in mice after 30 mg/kg intraperitoneal administration; Inactive; type: functional, organism-based; set-up: dose 30 mg/kg
[14] = Compound was evaluated for 50% lethal dose in mice; LD50 range 300-1000 mg/kg; type: ADME, organism-based; conditions: mouse, in vivo
Mus musculus [15] = test: Compound was evaluated for antidepressant activity measured by tetrabenazine (TBZ) induced ptosis in mice after 30 mg/kg intraperitoneal administration; Inactive; type: functional, organism-based; set-up: dose 30 mg/kg
[16] = Compound was evaluated for 50% lethal dose in mice; LD50 range 100-300 mg/kg; type: ADME, organism-based; conditions: mouse, in vivo
Mus musculus [17] = test: Compound was evaluated for antidepressant activity measured by tetrabenazine (TBZ) induced exploratory activity in mice after 60 mg/kg intraperitoneal administration; Inactive; type: functional, organism-based; set-up: dose 60 mg/kg
Mus musculus [18] = test: Compound was evaluated for antidepressant activity measured by tetrabenazine (TBZ) induced ptosis in mice after intraperitoneal administration; Lethal at 60 Mg/kg; type: functional; conditions: ip
Mus musculus [19] = test: Meso form was evaluated for antidepressant activity measured by tetrabenazine (TBZ) induced exploratory activity in mice after intraperitoneal administration; type: functional; conditions: ip
Mus musculus [20] = test: dl form was evaluated for antidepressant activity measured by tetrabenazine (TBZ) induced exploratory activity in mice after intraperitoneal administration; type: functional; conditions: ip
Mus musculus [21] = test: dl form was evaluated for antidepressant activity measured by tetrabenazine (TBZ) induced ptosis in mice after intraperitoneal administration; type: functional; conditions: ip
Mus musculus [22] = test: Meso form was evaluated for antidepressant activity measured by tetrabenazine (TBZ) induced ptosis in mice after intraperitoneal administration (Two diastereomers (7/6) were present); type: functional; conditions: ip
Mus musculus [23] = test: Compound was evaluated for antidepressant activity measured by tetrabenazine (TBZ) induced ptosis in mice after 30 mg/kg intraperitoneal administration; type: functional; conditions: ip
Mus musculus [24] = test: Compound was evaluated for antidepressant activity measured by tetrabenazine (TBZ) induced exploratory activity in mice after 30 mg/kg intraperitoneal administration; type: functional; conditions: ip

| SMILES | ED50 (Mus musculus [1]) [mg/kg] | ED50 (Mus musculus [2]) [mg/kg] | ED50 (Mus musculus [3]) [mg/kg] | ED50 (Mus musculus [4]) [mg/kg] | also measured |
| --- | --- | --- | --- | --- | --- |
| CNCC(c1ccccc1)c1ccccc1 | 9 | 2.3 | 5 | 8.2 | LD50 [5]: 30 mg/kg |
| OCCN(CCO)CC(c1cccs1)c1cccs1 | – | – | – | – | ED50 (Mus musculus [6]): inactive; ED50 (Mus musculus [7]): inactive |
| OCCN(CCO)CC(O)(c1ccccc1)c1ccccc1 | – | 8 | 80 | – | – |
| c1ccc2c(c1)cc1n2CCCNC1 [AZEPINDOLE] | 32 | 9 | 11 | 46 | LD50 [8]: 100 mg/kg |
| COc1ccc(C(CN(CCO)CCO)c2ccc(OC)c(OC)c2)cc1OC | – | – | – | – | ED50 (Mus musculus [9]): inactive; ED50 (Mus musculus [10]): inactive |
| NCC(c1ccccc1)c1ccccc1 | > 15 | 1.7 | 1.8 | 10 | LD50 [5]: 30 mg/kg |
| NCC(O)(c1ccccc1)c1ccccc1 | 9.9 | 6 | 9 | 8.1 | LD50 [11]: 100 mg/kg |
| CN(C)CCCN1c2ccccc2CCc2ccccc21 [IMIPRAMINE] | 14.9 | 0.9 | 1.3 | 20.3 | – |
| CC(=O)OCCN(CCOC(C)=O)CC(c1ccccc1)c1ccccc1 | – | 13 | 23 | – | – |
| CN(C)CC(c1ccc(Cl)cc1)c1ccc(Cl)cc1 | – | 16 | 11 | – | – |
| OCCN(CCO)C(Cc1ccccc1)c1ccccc1 (configuration not stated) | – | – | – | – | ED50 (Mus musculus [6]): inactive; ED50 (Mus musculus [7]): inactive |
| NCC(F)(c1ccccc1)c1ccccc1 | – | – | – | – | ED50 (Mus musculus [12]): inactive; ED50 (Mus musculus [13]): inactive |
| CN(C)CC(c1ccccc1)c1ccccc1 | 3 | 2.5 | 9 | 7 | LD50 [5]: 100 mg/kg |
| OCCN(CCO)CCc1ccccc1 | > 50 | 12 | 17 | > 50 | LD50 [14]: 1000 mg/kg |
| COc1ccc(C(CN(CCO)CCO)c2ccccc2)cc1OC (configuration not stated) | – | – | – | – | ED50 (Mus musculus [9]): inactive; ED50 (Mus musculus [10]): inactive |
| OCCN(CCO)CC(c1ccccc1)C1CCCCC1 (configuration not stated) | – | 22 | ~50 | – | – |
| CCNCCC(c1ccccc1)c1ccccc1 | – | 23 | 15 | – | – |
| NCC(c1ccc(Cl)cc1)c1ccc(Cl)cc1 | – | – | – | – | ED50 (Mus musculus [13]): inactive; ED50 (Mus musculus [15]): inactive |
| CC(N)C(c1ccccc1)c1ccccc1 (configuration not stated) | – | 3.8 | 3.5 | – | – |
| COc1ccc(C(CN(CCO)CCO)c2ccc(OC)cc2)cc1 | – | – | – | – | ED50 (Mus musculus [9]): inactive; ED50 (Mus musculus [10]): inactive |
| COc1ccc(C(CN)c2ccc(OC)c(OC)c2)cc1OC | – | – | – | – | ED50 (Mus musculus [9]): inactive; ED50 (Mus musculus [10]): inactive |
| CCN(CCO)CCC(c1ccccc1)c1ccccc1 | 21.4 | 1.9 | 10 | > 25 | LD50 [16]: 300 mg/kg |
| OCCN(CCO)CCC(c1ccccc1)c1ccccc1 | – | 20 | 24 | – | – |
| COc1ccc(C(CN)c2ccc(OC)cc2)cc1 | – | – | – | – | ED50 (Mus musculus [17]): inactive; ED50 (Mus musculus [18]): > 10 mg/kg |
| CC(O)CN(CC(C)O)CC(c1ccccc1)c1ccccc1 (configuration not stated) | – | – | – | – | ED50 (Mus musculus [19]): 18 mg/kg; ED50 (Mus musculus [20]): 11 mg/kg; ED50 (Mus musculus [21]): 6 mg/kg; ED50 (Mus musculus [22]): 7 mg/kg |
| OCCN(CCO)CC(c1ccccc1)c1ccccc1 | 15.4 | 2 | – | 20.3 | LD50 [16]: 300 mg/kg |
| CNCC(c1ccccc1)c1ccc(OC)c(OC)c1 (configuration not stated) | – | 11 | > 30 | – | – |
| COc1ccc(C(CN(C)C)c2ccccc2)cc1OC (configuration not stated) | – | 14 | – | – | ED50 (Mus musculus [6]): inactive |
| CNCC(c1ccc(Cl)cc1)c1ccc(Cl)cc1 | – | – | – | – | ED50 (Mus musculus [23]): 13 mg/kg; ED50 (Mus musculus [24]): 14 mg/kg |
| COc1ccc(C(CN)c2ccccc2)cc1OC (configuration not stated) | – | – | – | – | ED50 (Mus musculus [6]): inactive; ED50 (Mus musculus [7]): inactive |
